Experimental data: patent US20230165873A1, “Methods of Use for Single Molecule Compounds Providing Multi-Target Inhibition to Treat Covid 19” (priority 2020, published 2023)

target: PI3K gamma (Homo sapiens, UniProt P48736); test: PI3K gamma in vitro inhibition; type: biochemical; settings: read-out: IC50 inhibition PI3K gamma
Description: (§1) The kinase or bromodomain inhibitory activity of a compound of the invention can be determined by routine methods known to the skilled artisan without undue experimentation, or by procuring relevant analysis by a commercial vendor offering such services. […] In vivo, PI3K inhibition can be determined from target tissue biopsies by standard tissue processing in which cells are disrupted and Western Blot analysis is performed to determine the presence or absence of pAKT (substrate of PI3K) relative to a control sample. PI3K inhibition assays and BTK inhibition assays are known in the art and can be procured commercially through vendors such as Reaction Biology (Malvern, PA). The activity of a compound of the invention as an inhibitor of a bromodomain-containing protein, such as a BET protein, including BRD2, BRD3, BRD4, and/or BRDT, or an isoform or mutant thereof, may be determined in vitro, in vivo, or in a cell line. In vitro assays include assays that determine inhibition of bromodomain-containing proteins. Alternatively, inhibitor binding may be determined by running a competition experiment where a provided compound is incubated with a bromodomain-containing protein, such as a BET protein bound to known ligands, labeled or unlabeled. In vitro bromodomain inhibition assays can be performed using Alpha Screen Technology (Perkin Elmer Life and Analytical Sciences, Shelton, CT). In vivo bromodomain inhibition can be determined indirectly by evaluating the amount of a protein whose gene transcription is influenced or controlled by the bromodomain protein, for example, MYCN protein transcription is controlled by BRD4 (J.E. Delmore et al., Cell 2011, 146, 904-917; A. Puissant, Cancer Discov. 2013, 3, 308-323).
(§2) IC50 inhibition data against the indicated targets were determined for compounds of the invention using standard in vitro assays (Tables 8 and 9).

PI3K gamma, sequence (P48736 whole entry): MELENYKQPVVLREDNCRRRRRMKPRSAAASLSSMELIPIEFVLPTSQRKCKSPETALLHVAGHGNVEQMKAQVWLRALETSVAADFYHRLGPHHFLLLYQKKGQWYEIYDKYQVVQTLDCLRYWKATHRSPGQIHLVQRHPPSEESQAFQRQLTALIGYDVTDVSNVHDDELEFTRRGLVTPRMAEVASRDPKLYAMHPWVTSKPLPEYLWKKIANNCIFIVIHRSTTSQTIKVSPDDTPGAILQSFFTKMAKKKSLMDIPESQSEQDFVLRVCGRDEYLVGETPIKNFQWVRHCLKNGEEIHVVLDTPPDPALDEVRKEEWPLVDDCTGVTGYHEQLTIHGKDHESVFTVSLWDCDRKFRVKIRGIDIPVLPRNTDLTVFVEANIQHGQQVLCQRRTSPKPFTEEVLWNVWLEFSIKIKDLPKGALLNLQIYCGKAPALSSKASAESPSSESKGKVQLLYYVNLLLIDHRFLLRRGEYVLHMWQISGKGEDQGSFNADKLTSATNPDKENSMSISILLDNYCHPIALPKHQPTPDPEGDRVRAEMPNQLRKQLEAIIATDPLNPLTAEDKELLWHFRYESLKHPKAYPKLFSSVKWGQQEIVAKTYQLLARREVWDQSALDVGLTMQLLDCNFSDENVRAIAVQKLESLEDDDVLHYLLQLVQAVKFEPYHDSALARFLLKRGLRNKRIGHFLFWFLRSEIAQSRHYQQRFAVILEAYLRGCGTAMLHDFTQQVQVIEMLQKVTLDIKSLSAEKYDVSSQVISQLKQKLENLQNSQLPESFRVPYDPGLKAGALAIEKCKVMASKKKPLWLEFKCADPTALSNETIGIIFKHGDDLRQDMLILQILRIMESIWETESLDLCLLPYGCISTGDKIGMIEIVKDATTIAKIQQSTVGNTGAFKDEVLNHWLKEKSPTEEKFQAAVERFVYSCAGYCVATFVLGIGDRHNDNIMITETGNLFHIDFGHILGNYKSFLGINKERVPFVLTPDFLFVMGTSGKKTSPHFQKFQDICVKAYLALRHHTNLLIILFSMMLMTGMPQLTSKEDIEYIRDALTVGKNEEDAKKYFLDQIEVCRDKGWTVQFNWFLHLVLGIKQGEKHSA

SMILES | IC50 [µM]
CC(C)n1c(C(=O)N(C)C)cc2cnc(Nc3ccc(-c4csc5c(=O)cc(N6CCOCC6)oc45)cc3)nc21 [Compound 25] | 1 to 10
C=CC(=O)N1CCOc2ccc(-c3csc4c(=O)cc(N5CCNCC5)oc34)cc21 [Compound 26] | > 45
C=CC(=O)Nc1cccc(-c2csc3c(=O)cc(N4CCNCC4)oc23)c1 [Compound 27] | > 45
C=CC(=O)N1CCOc2ccc(-c3csc4c(=O)cc(N5CCN(C)CC5)oc34)cc21 [Compound 28] | > 45
C=CC(=O)N1CCOc2ccc(-c3csc4c(=O)cc(N5CCN(C(=O)OC(C)(C)C)CC5)oc34)cc21 [Compound 29] | 10 to 45
CCCCC/C=C/C(=O)Nc1cccc(-c2csc3c(=O)cc(N4CCOCC4)oc23)c1 [Compound 34] | 10 to 45

target: CDK4 cyclinD1 (Homo sapiens, UniProt P11802); test: CDK4 cyclinD1 in vitro inhibition; type: biochemical; settings: not given
Description: as §1, §2

SMILES | IC50 [µM]
CC(C)n1c(C(=O)N(C)C)cc2cnc(Nc3ccc(-c4csc5c(=O)cc(N6CCOCC6)oc45)cc3)nc21 [Compound 25] | < 0.5

target: BTK C481S (Homo sapiens, UniProt Q06187, C481S); test: BTK C481S in vitro inhibition; type: biochemical; settings: not given
Description: as §1, §2

BTK C481S, sequence (Q06187 whole entry C481S): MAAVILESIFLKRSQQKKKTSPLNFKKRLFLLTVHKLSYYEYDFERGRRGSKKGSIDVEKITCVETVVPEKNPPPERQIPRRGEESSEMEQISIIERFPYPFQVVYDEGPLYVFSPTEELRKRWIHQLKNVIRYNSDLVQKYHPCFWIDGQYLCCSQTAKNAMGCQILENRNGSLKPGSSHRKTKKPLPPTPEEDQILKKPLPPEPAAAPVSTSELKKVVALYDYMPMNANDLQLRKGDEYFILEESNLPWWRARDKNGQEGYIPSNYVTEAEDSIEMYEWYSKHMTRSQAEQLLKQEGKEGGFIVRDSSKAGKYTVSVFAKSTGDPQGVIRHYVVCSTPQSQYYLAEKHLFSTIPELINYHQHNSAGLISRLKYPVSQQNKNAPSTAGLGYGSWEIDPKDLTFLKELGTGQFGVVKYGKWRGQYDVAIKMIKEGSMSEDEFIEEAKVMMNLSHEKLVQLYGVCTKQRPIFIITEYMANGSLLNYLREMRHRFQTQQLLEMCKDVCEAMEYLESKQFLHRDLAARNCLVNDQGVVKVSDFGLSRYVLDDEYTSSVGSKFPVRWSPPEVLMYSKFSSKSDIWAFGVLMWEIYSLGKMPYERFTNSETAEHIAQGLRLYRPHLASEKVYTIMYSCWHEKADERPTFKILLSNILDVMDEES

SMILES | IC50 [µM]
C=CC(=O)N1CCOc2ccc(-c3csc4c(=O)cc(N5CCNCC5)oc34)cc21 [Compound 26] | 10 to 45
C=CC(=O)Nc1cccc(-c2csc3c(=O)cc(N4CCNCC4)oc23)c1 [Compound 27] | 10 to 45
C=CC(=O)N1CCOc2ccc(-c3csc4c(=O)cc(N5CCN(C(=O)OC(C)(C)C)CC5)oc34)cc21 [Compound 29] | 10 to 45
CCCCC/C=C/C(=O)Nc1cccc(-c2csc3c(=O)cc(N4CCOCC4)oc23)c1 [Compound 34] | > 45
N#C/C(=C\C1CC1)C(=O)Nc1cccc(-c2csc3c(=O)cc(N4CCOCC4)oc23)c1 [Compound 35] | 10 to 45

target: PI3K beta (Homo sapiens, UniProt P42338); test: PI3K beta in vitro inhibition; type: biochemical; settings: not given
Description: as §1

PI3K beta, sequence (P42338 whole entry): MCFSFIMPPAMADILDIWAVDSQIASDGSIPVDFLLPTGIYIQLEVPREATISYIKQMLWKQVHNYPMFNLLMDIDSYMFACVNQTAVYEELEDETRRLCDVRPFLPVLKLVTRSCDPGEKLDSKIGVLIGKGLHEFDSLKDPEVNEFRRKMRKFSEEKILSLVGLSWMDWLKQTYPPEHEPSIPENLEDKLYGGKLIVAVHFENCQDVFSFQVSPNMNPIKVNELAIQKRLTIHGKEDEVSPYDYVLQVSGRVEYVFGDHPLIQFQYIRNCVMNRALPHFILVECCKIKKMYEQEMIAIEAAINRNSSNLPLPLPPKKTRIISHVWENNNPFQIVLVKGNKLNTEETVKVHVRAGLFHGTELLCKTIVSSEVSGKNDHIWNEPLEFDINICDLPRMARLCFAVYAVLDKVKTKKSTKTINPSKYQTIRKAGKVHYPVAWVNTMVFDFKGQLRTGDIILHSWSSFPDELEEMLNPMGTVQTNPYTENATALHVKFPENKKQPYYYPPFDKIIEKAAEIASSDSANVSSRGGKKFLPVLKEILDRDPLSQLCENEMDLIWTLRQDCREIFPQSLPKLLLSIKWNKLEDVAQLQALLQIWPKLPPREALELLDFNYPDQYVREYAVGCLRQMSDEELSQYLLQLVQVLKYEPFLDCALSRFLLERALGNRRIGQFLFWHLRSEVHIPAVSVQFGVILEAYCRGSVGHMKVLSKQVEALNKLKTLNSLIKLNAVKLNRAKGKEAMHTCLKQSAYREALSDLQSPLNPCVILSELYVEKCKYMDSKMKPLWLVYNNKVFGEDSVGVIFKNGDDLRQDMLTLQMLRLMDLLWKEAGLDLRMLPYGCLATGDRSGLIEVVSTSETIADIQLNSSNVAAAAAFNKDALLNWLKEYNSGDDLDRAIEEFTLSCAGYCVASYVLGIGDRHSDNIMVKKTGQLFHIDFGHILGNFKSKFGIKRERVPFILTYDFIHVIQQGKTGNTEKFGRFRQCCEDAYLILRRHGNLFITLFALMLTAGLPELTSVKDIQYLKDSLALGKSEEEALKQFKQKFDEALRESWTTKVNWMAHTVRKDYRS
PI3K beta, sequence (P27986 whole entry partner): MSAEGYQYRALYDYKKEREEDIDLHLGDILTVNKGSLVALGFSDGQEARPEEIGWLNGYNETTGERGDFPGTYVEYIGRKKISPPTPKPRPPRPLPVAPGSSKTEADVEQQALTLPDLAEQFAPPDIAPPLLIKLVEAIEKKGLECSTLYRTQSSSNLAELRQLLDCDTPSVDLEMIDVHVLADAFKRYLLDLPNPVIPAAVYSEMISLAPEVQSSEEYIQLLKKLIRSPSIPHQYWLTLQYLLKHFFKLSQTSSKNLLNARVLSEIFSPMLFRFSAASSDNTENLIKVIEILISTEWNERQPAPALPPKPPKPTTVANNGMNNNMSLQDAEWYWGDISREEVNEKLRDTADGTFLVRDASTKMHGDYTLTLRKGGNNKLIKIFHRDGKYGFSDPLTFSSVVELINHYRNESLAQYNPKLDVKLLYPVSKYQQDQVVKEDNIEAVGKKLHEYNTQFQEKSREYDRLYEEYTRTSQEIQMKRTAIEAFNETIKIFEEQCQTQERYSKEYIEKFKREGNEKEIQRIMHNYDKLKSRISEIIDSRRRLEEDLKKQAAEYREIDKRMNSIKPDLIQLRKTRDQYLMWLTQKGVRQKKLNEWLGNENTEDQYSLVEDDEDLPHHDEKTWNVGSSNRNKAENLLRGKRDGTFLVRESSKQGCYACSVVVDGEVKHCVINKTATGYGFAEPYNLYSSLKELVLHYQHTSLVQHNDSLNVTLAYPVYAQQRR

SMILES | IC50 [µM]
CC(C)n1c(C(=O)N(C)C)cc2cnc(Nc3ccc(-c4csc5c(=O)cc(N6CCOCC6)oc45)cc3)nc21 [Compound 25] | < 0.5
C=CC(=O)N1CCOc2ccc(-c3csc4c(=O)cc(N5CCNCC5)oc34)cc21 [Compound 26] | 1 to 10
C=CC(=O)Nc1cccc(-c2csc3c(=O)cc(N4CCNCC4)oc23)c1 [Compound 27] | > 45
C=CC(=O)N1CCOc2ccc(-c3csc4c(=O)cc(N5CCN(C)CC5)oc34)cc21 [Compound 28] | 1 to 10
C=CC(=O)N1CCOc2ccc(-c3csc4c(=O)cc(N5CCN(C(=O)OC(C)(C)C)CC5)oc34)cc21 [Compound 29] | 1 to 10
CCCCC/C=C/C(=O)Nc1cccc(-c2csc3c(=O)cc(N4CCOCC4)oc23)c1 [Compound 34] | 1 to 10
N#C/C(=C\C1CC1)C(=O)Nc1cccc(-c2csc3c(=O)cc(N4CCOCC4)oc23)c1 [Compound 35] | < 0.5

target: PI3K alpha (Homo sapiens, UniProt P42336); test: PI3K alpha in vitro inhibition; type: biochemical; settings: not given
Description: as §1

PI3K alpha, sequence (P42336 whole entry): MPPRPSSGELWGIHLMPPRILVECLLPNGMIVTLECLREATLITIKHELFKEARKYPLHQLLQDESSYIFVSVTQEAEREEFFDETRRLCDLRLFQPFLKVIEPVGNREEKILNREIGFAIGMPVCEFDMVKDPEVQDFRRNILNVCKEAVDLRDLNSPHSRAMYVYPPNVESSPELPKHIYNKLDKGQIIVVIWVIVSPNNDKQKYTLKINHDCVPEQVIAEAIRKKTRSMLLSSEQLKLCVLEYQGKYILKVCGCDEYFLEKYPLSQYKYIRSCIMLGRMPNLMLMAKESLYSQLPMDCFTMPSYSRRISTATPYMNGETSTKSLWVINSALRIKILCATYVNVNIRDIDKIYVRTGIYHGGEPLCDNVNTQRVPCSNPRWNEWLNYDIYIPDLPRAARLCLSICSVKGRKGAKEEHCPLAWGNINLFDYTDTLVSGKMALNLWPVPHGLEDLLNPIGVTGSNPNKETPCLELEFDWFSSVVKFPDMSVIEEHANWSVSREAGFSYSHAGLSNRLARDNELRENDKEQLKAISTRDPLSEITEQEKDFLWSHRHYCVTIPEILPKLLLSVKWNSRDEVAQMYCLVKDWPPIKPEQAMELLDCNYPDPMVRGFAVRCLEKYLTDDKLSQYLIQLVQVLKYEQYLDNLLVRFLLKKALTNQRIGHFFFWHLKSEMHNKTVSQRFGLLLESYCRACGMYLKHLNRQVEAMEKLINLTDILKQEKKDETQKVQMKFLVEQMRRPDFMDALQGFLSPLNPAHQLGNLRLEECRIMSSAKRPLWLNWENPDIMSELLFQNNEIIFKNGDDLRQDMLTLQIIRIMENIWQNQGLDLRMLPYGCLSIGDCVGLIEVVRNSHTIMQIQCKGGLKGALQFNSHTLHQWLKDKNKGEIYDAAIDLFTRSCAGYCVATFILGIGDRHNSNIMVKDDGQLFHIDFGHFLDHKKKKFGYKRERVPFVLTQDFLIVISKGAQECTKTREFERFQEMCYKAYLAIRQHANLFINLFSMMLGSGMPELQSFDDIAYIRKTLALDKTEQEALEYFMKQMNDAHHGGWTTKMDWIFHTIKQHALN
PI3K alpha, sequence (P27986 whole entry partner): as the sequence (P27986 whole entry partner) above

SMILES | IC50 [µM]
CC(C)n1c(C(=O)N(C)C)cc2cnc(Nc3ccc(-c4csc5c(=O)cc(N6CCOCC6)oc45)cc3)nc21 [Compound 25] | < 0.5
C=CC(=O)N1CCOc2ccc(-c3csc4c(=O)cc(N5CCNCC5)oc34)cc21 [Compound 26] | 10 to 45
C=CC(=O)Nc1cccc(-c2csc3c(=O)cc(N4CCNCC4)oc23)c1 [Compound 27] | > 45
C=CC(=O)N1CCOc2ccc(-c3csc4c(=O)cc(N5CCN(C)CC5)oc34)cc21 [Compound 28] | 10 to 45
C=CC(=O)N1CCOc2ccc(-c3csc4c(=O)cc(N5CCN(C(=O)OC(C)(C)C)CC5)oc34)cc21 [Compound 29] | 10 to 45
N#C/C(=C\C1CC1)C(=O)Nc1cccc(-c2csc3c(=O)cc(N4CCOCC4)oc23)c1 [Compound 35] | < 0.5

target: T1, BRD4-2 (Homo sapiens, UniProt O60885); test: BRD4-2 in vitro inhibition; type: binding; settings: not given
T1 construct: BRD4-2
Description: as §1

SMILES | IC50 [µM]
CC(C)n1c(C(=O)N(C)C)cc2cnc(Nc3ccc(-c4csc5c(=O)cc(N6CCOCC6)oc45)cc3)nc21 [Compound 25] | < 0.5
C=CC(=O)N1CCOc2ccc(-c3csc4c(=O)cc(N5CCN(C)CC5)oc34)cc21 [Compound 28] | 10 to 45
CCCCC/C=C/C(=O)Nc1cccc(-c2csc3c(=O)cc(N4CCOCC4)oc23)c1 [Compound 34] | 10 to 45
N#C/C(=C\C1CC1)C(=O)Nc1cccc(-c2csc3c(=O)cc(N4CCOCC4)oc23)c1 [Compound 35] | 0.5 to 1

target: T2, BRD4-1 (Homo sapiens, UniProt O60885); test: BRD4-1 in vitro inhibition; type: binding; settings: not given
T2 construct: BRD4-1
Description: as §1

SMILES | IC50 [µM]
CC(C)n1c(C(=O)N(C)C)cc2cnc(Nc3ccc(-c4csc5c(=O)cc(N6CCOCC6)oc45)cc3)nc21 [Compound 25] | < 0.5
C=CC(=O)N1CCOc2ccc(-c3csc4c(=O)cc(N5CCNCC5)oc34)cc21 [Compound 26] | < 0.5
C=CC(=O)Nc1cccc(-c2csc3c(=O)cc(N4CCNCC4)oc23)c1 [Compound 27] | 0.5 to 1
C=CC(=O)N1CCOc2ccc(-c3csc4c(=O)cc(N5CCN(C(=O)OC(C)(C)C)CC5)oc34)cc21 [Compound 29] | 0.5 to 1

target: CDK6 cyclinD1 (Homo sapiens, UniProt Q00534); test: CDK6 cyclinD1 in vitro inhibition; type: biochemical; settings: not given
Description: as §1, §2

SMILES | IC50 [µM]
CC(C)n1c(C(=O)N(C)C)cc2cnc(Nc3ccc(-c4csc5c(=O)cc(N6CCOCC6)oc45)cc3)nc21 [Compound 25] | < 0.5

target: BTK (Homo sapiens, UniProt Q06187); test: BTK in vitro inhibition; type: biochemical; settings: not given
Description: as §1, §2

BTK, sequence (Q06187 whole entry): as the sequence (Q06187 whole entry C481S) above, with S481C counted along it

SMILES | IC50 [µM]
C=CC(=O)N1CCOc2ccc(-c3csc4c(=O)cc(N5CCNCC5)oc34)cc21 [Compound 26] | < 0.5
C=CC(=O)N1CCOc2ccc(-c3csc4c(=O)cc(N5CCN(C)CC5)oc34)cc21 [Compound 28] | < 0.5
C=CC(=O)N1CCOc2ccc(-c3csc4c(=O)cc(N5CCN(C(=O)OC(C)(C)C)CC5)oc34)cc21 [Compound 29] | < 0.5
CCCCC/C=C/C(=O)Nc1cccc(-c2csc3c(=O)cc(N4CCOCC4)oc23)c1 [Compound 34] | > 45
N#C/C(=C\C1CC1)C(=O)Nc1cccc(-c2csc3c(=O)cc(N4CCOCC4)oc23)c1 [Compound 35] | 10 to 45
O=C(C1=CCCC1)N1CCOc2ccc(-c3csc4c(=O)cc(N5CCOCC5)oc34)cc21 [Compound 41] | 1 to 10
